pIC50: −log10 of the molar value.
How the values were obtained:
[1] = target: T1, ULK1 kinase (Homo sapiens, UniProt O75385, E37A/K38A); test: Biochemical assay for ULK1.3 (coupled pyruvate kinase/lactate dehydrogenase assay); conditions: 0.1 nM ULK1 (residues 1-283), peptide substrate, 1 mM ATP
T1 construct: (residues 1-283; ID NO: 2); purchased Beryllium
T1 sequence (O75385 1-283 E37A/K38A): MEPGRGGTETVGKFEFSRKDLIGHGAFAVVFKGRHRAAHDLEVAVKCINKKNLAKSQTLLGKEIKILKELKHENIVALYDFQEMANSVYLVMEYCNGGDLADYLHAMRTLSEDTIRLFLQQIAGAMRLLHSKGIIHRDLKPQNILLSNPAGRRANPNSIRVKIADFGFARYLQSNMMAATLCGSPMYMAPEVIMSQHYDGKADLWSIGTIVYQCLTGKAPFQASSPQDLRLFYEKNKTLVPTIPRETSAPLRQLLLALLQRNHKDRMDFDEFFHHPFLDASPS
Protocol: Activity of ULK1 kinase was determined spectroscopically using a coupled pyruvate kinase/lactate dehydrogenase assay that continuously monitors the ATP hydrolysis-dependent oxidation of NADH (e.g., Schindler et al. Science (2000) 289: 1938-1942). Assays were conducted in 384-well plates (100 uL final volume) using 0.1 nM ULK1 (from Beryllium), 0.075 mM peptide substrate (YANWLAASIYLDGKKK (SEQ ID NO: 5)), 1.5 units pyruvate kinase, 2.1 units lactate dehydrogenase, 1 mM phosphoenol pyruvate, 0.28 mM NADH and 1 mM ATP in assay buffer (100 mM Tris, pH 7.5, 15 mM MgCl2, 0.5 mM DTT, 0.004% (w/v) BSA, and 0.004% Triton X-100). Inhibition of ULK1 was measured by adding serial diluted test compound (final assay concentration of 1% DMSO). A decrease in absorption at 340 nm was monitored continuously for 6 hours at 30° C. on a multi-mode microplate reader (BioTek). The reaction rate was calculated using the 2-3 h time frame. The reaction rate at each concentration of compound was converted to percent inhibition using controls (i.e. reaction with no test compound and reaction with a known inhibitor) and IC50 values were calculated using software routines in Prism (GraphPad software).

[2] = target: T2, ULK1 kinase (Homo sapiens, UniProt O75385); test: Biochemical assay for ULK1.2 (coupled pyruvate kinase/lactate dehydrogenase assay); conditions: 19 nM ULK1 (residues 1-314), myelin basic protein substrate, 1 mM ATP
T2 construct: purchased Eurofins 14-959
T2 sequence (O75385 with tags, fused parts or gaps): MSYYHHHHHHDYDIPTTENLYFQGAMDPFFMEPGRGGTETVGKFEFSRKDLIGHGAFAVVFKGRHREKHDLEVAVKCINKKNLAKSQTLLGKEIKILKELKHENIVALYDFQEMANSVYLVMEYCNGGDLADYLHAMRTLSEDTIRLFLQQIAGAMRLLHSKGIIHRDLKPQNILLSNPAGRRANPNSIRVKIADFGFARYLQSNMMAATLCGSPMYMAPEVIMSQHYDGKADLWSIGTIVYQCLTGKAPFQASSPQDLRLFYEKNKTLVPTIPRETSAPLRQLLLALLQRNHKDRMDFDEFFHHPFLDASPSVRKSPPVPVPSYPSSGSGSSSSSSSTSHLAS
Protocol: Activity of ULK1 kinase was determined spectroscopically using a coupled pyruvate kinase/lactate dehydrogenase assay that continuously monitors the ATP hydrolysis-dependent oxidation of NADH (e.g., Schindler et al. Science (2000) 289: 1938-1942). Assays were conducted in 384-well plates (100 uL final volume) using 19 nM ULK1 (Eurofins CAT #14-959), 0.25 mg/mL myelin basic protein, 1.5 units pyruvate kinase, 2.1 units lactate dehydrogenase, 1 mM phosphoenol pyruvate, 0.28 mM NADH and 1 mM ATP in assay buffer (100 mM Tris, pH 7.5, 15 mM MgCl2, 0.5 mM DTT, 0.1% octyl-glucoside, 0.002% (w/v) BSA, and 0.002% Triton X-100). Inhibition of ULK1 was measured by adding serial diluted test compound (final assay concentration of 1% DMSO). A decrease in absorption at 340 nm was monitored continuously for 6 hours at 30° C. on a multi-mode microplate reader (BioTek). The reaction rate was calculated using the 2-3 h time frame. The reaction rate at each concentration of compound was converted to percent inhibition using controls (i.e. reaction with no test compound and reaction with a known inhibitor) and IC50 values were calculated by fitting a four-parameter sigmoidal curve to the data using Prism (GraphPad software).

CC(C)c1cc(N2CCN(C)CC2)ccc1Nc1ncc(C(F)(F)F)c(NCCCNC(=O)C2CCC2)n1 [Example 3]
pIC50 [1]: 7.60 to 9.00

COc1cc(N2CCN(C)CC2)ccc1Nc1ncc(C(F)(F)F)c(NCCCNC(=O)C2CCC2)n1 [Example 4]
pIC50 [1]: 7.00 to 7.60

CC(C)c1cc(N2CCN(C)CC2)ccc1Nc1ncc(Br)c(NCCCNC(=O)C2CCC2)n1 [Example 8]
pIC50 [1]: 7.00 to 7.60

Cc1cc(N2CCN(C)CC2)ccc1Nc1ncc(C(F)(F)F)c(NCCCNC(=O)C(C)(C)C)n1 [Example 12]
pIC50 [2]: 7.00 to 7.60

CN1CCN(c2ccc(Nc3ncc(C(F)(F)F)c(NCCCNC(=O)C4CCC4)n3)c(C3CC3)c2)CC1 [Example 14]
pIC50 [1]: 7.60 to 9.00
